Data from patent publication US9809521B2, “Cannabidinoid derivatives” (priority 2011, dated 2017).
Entries after “also recorded” stand apart in the source; their conditions may differ. Like-named read-outs stand apart in the source and are kept apart here. Marks after values point to notes of the source that are not given here.

Assays:
Id-1 = test: Quantitative Western analysis of Id-1 protein expression in MDA-MB231 cells; format: cell-based, human; settings: 1.5 μM, two days
Method: Quantitative Western analysis of Id-1 Expression in MDA-MB231 cells with CBD, Δ^9-THC, or WIN 55,212-2. The ability of CBD to regulate the expression of key genes that control breast cancer cell aggressiveness and invasiveness was determined.
SAR Analysis of Id-1 expression in MDA-MB231 cells with (Abn)-CBD receptor, Abn-CBD, O-1602, CP55,940, THC, CBN, or CBD. In order to determine the structure activity relationship (“SAR”) between cannabinoids and the inhibition of Id-1, MDA-MB231 cells were treated for two days with multiple cannabinoid compounds and Id-1 protein levels were assessed.
Quantitative Western analysis of Id-1 expression in MDA-MB231 cells and U251 cells with CBD or O-1663 CBD analog. […] MDA-MB231 breast cancer cells and U251 GBM cells were treated with 1.0 μM of cannabinoid for two days and then analyzed for Id-1 protein expression by quantitative Western analysis.

MDA-MB436 cells = test: MTT cell proliferation assay; settings: read-out: IC50, antiproliferative, MDA-MB436
SF126 cells = test: MTT cell proliferation assay; settings: read-out: IC50, SF126
MDA-MB231 cells [1] = test: MTT cell proliferation/viability assay
Excerpt: (§1) The structure of O-1442 and O-1663 are almost identical with the exception of one R group. A smaller subset of the same analogs, including O-1442 and O-1663, were further screened for their ability to inhibit 4T1 breast cancer cell viability in anticipation of running in vivo experiments in immune competent mice (TABLE 5).
(§2) To directly test whether the O-1663 CBD analog could co-target two distinct cannabinoid antitumor pathways, the effects of CBD and the O-1663 CBD analog on cell viability with multiple antagonists were probed (FIG. 25). […] The ability of the O-1663 CBD analog and CBD to inhibit invasion was next compared (FIG. 25, panel C).

4T1 cells = test: Cell viability assay; format: cell-based, mouse; settings: Table 5; read-out: IC50, 4T1 cell viability
Excerpt: as §1

caspase 3, 7, 9 and PARP = test: Western analysis of caspases and PARP in U251 cells; format: cell-based, human; settings: THC 1.7 μM, CBD 0.4 μM, three days
Excerpt: Caspases play a primary role in the regulation of programmed cell death.

MDA-MB231 cells [2] = test: Boyden chamber invasion assay; format: cell-based, human; settings: 0.1, 1.0 or 1.5 μM
Method: Boyden chamber MDA-MB231 cell invasion studies with CBD, Δ^9-THC, or WIN 55,212-2. Invasion is an important step towards breast cancer cell metastasis. Therefore, the effects of several cannabinoids were tested on their ability to modulate the migratory and invasiveness activity of the most aggressive human breast cancer cell line, MDA-MB231, in a reconstituted basement membrane in a Boyden chamber.
Assays using Id-1 promoter reporter transfected MDA-MB231 cells with CBD. To determine if Id-1 represented a key mediator of CBD effects in highly aggressive breast cancer cells, Id-1 was constitutively expressed into MDA-MB231 cells (+)Id-1 as described in FIG. 2. The ectopic Id-1 gene, which is not under the control of the endogenous promoter, was introduced in the cells using the pLXSN retroviral vector. As a control, cells were infected with an empty pLXSN vector (−)Id-1.
Boyden chamber MDA-MB231 cell invasion studies with CBD and O-1663 CBD analog. Boyden chamber studies for invasion by MDA-MB231 or U251 cells were performed with either CBD or O-1663 CBD analog.
as §2

ROS = ROS measurement in MDA-MB231 cells; format: cell-based, human; settings: two days; approximate IC50 for CBD and THC
Excerpt: In culture, CBD-induced generation of ROS is a primary mechanism that leads to inhibition of cell growth, invasion, and survival across multiple cancers. The generation of ROS by CBD leads to the inhibition of Id-1 expression in breast cancer cells. […] The ability of CBD and the O-1663 CBD analog to stimulate the production of ROS was next compared. […] The involvement of CB2 receptors in the productions of ROS produced by CBD and the O-1663 CBD analog was next investigated.

U251 cells [3] = test: Apoptosis (annexin staining, FACS); format: cell-based, human
Method: Apoptosis: Cells were grown in 6 well culture dishes and were treated with compounds of the disclosure every 24 hours for three days. […] The labeled cells were analyzed by flow cytometry. Cell Flow Cytometry in combination with PI and annexin staining was used to quantify the percentage of cells undergoing apoptosis in control and treatment groups. Percent control was calculated as annexin positive staining in treated cells/control cells×100. PI staining was used to distinguish necrotic cells from those undergoing apoptosis.
(§3) Albeit, the magnitude of these effects was reduced compared to those observed with the combination treatment.
The concentrations of the individual cannabinoids (THC and CBD) were next increased in order to attempt to match levels of apoptosis produced by the combination treatment. The purpose of these experiments was to determine whether the compounds alone recruited similar pathways as compared to the combination of THC and CBD. […] However, THC alone could not produce the level of apoptosis observed with the combination treatment (FIG. 23, panel A and B).

U251 cells [4] = test: Boyden chamber invasion assay; format: cell-based, human
Excerpt: Boyden chamber U251 cell invasion studies with CBD and/or Δ^9-THC. In addition to uncontrolled cell growth, a hallmark phenotype of aggressive GBM tumor cells is their ability to migrate away for the primary tumor of origin and invade into neighboring CNS tissue.

U251 cells [5] = test: Cell cycle analysis (PI staining, FACS); format: cell-based, human; settings: THC 1.7 μM, CBD 0.4 μM
Method: Cell cycle analysis: U251 cells were grown in Petri dishes (100 mm×15 mm) and received drug treatments for 2 days. On the third day, the cells were harvested and centrifuged at 1200 rpm for 5 minutes. The pellet was washed 1× with PBS+1% BSA, and centrifuged again. The pellet was re-suspended in 0.5 ml of 2% paraformaldehyde (diluted with PBS) and left to fix overnight at room temperature. The next day the cells were pelleted and re-suspended in 0.5 ml 0.3% Triton in PBS and incubated for 5 minutes at room temperature. The cells were then washed 2 times with PBS+1% BSA. The cells were finally suspended in PBS (0.1% BSA) with 10 ug/ml Propidium Iodide and 100 μg/ml RNAse. The cells were incubated for 30 minutes at room temperature before being stored at 4° C. Cell cycle was measured using a FACS Calibur using Cell Quest Pro and Modfit software.
Apoptosis Studies using U251 cells with Δ^9-THC and/or CBD. […] Therefore, U251 cells were treated with THC and CBD alone or with the combination of the two, and cell cycle was analyzed using cell flow cytometery (FIG. 20). […] Additionally, there was an increase in the population of cells in the G2/M phase. These changes in G1, S and G2/M phase are hallmarks of cell cycle arrest.
as §3

pERK, JNK, p38 MAPK = test: Western analysis of MAPK activity in U251 cells
U87 cells = test: MTT cell proliferation assay; settings: read-out: IC50, U87; seven day treatment; 95% confidence limits in brackets
U251 cells [6] = test: MTT cell proliferation assay; settings: read-out: IC50, U251; seven day treatment; 95% confidence limits in brackets
[7] = Homo sapiens, MDA-MB-231, 72 h, read-out: IC50, antiproliferative, MDA-MB231
[8] = treated for three days, MTT, confidence limits in brackets
[9] = seven day treatment, 95% confidence limits in brackets
[10] = read-out: IC50, antiproliferative, MDA-MB231, treated for three days, MTT, confidence limits in brackets

C=C(C)[C@@H]1CCC(C)=C[C@H]1c1c(O)cc(O)cc1CCCCC [Abn-CBD]
inhibition of Id-1 (structure activity relationship) (Id-1): No inhibition of Id-1

CCCCCc1cc(O)c(C/C=C(\C)CCC=C(C)C)c(O)c1 [CBG, cannabigerol]
IC50 (MDA-MB436 cells; Homo sapiens, MDA-MB-436, 72 h): 2100 nM
IC50 (SF126 cells; Homo sapiens, SF-126, 72 h): 1600 nM
IC50 (MDA-MB231 cells [1]; [7]): 2300 nM

CCCCCc1cc(O)c2c(c1)OC(C)(C)c1ccc(C)cc1-2 [CBN, cannabinol]
inhibition of Id-1 (structure activity relationship) (Id-1): partially inhibit Id-1

CCCCCCC(C)(C)c1ccc([C@@H]2C[C@H](O)CC[C@H]2CCCO)c(O)c1 [CP 55, 940]
inhibition of Id-1 (structure activity relationship) (Id-1): less effective than CBD; also recorded: small inhibition of Id-1; also recorded: partially inhibit Id-1
IC50 (MDA-MB436 cells; Homo sapiens, MDA-MB-436, 72 h): 1300 nM
IC50 (SF126 cells; Homo sapiens, SF-126, 72 h): 3300 nM
IC50 (MDA-MB231 cells [1]; [7]): 2500 nM

C=C(C)[C@@H]1CCC(C)=C[C@H]1c1c(C)cc(O)cc1O [Compound 0-1602]
inhibition of Id-1 (structure activity relationship) (Id-1): No inhibition of Id-1

CCCCCCC(C)(C)c1cc(OC)c(C2(O)CCCC(C)C2)c(OC)c1 (stereo not drawn) [Compound O-2137]
Percent inhibition of cell viability, MDA-MB231 (MDA-MB231 cells [1]; at 5 μM): 45%^a
IC50 (4T1 cells): 3500 nM

CCCCCc1cc(O)c2c(c1)OC(C)(C)[C@@H]1CCC(C)=C[C@@H]21 [THC, Δ^9-tetrahydrocannabinol]
caspase 3, 7, 9 and PARP (caspase 3, 7, 9 and PARP): Small increases in the activity of caspase 7, caspase 9 and PARP but not caspase 3
invasion of MDA-MB231 cells (MDA-MB231 cells [2]): significantly reduced the invasion
inhibition of Id-1 (structure activity relationship) (Id-1): had no activity against Id-1; also recorded: No inhibition of Id-1
generation of ROS (ROS): no significant increase in ROS
block of apoptosis by CB2 antagonist SR144528 (U251 cells [3]; 0.5 μM SR144528, combination 1.7/0.4 μM, 2.5 μM THC, 2.0 μM CBD): partially blocked by the CB2 antagonist
block of apoptosis by α-tocopherol (U251 cells [3]; 20 μM α-tocopherol, combination 1.7/0.4 μM, 2.5 μM THC, 2.0 μM CBD): completely blocked by α-tocopherol
apoptosis (annexin) (U251 cells [3]; THC 1.7 μM, CBD 0.4 μM, three days): did not produce significant changes in apoptosis
invasiveness of U251 cells (U251 cells [4]): effectively inhibited the invasiveness of U251 cells
IC50 (U251 cells [4]; Boyden chamber, limits 49-150, read-out: predicted IC50, U251 cell invasiveness): 85 nM
IC50 (MDA-MB436 cells; [8]): 2500 nM
cell cycle phases (U251 cells [5]): increases in the population of cells in G1 and G2/M phase and decreases in cells in S phase
IC50 (SF126 cells; [9]): 900 nM
IC50 (SF126 cells; three day treatment, Table 3): 2500 nM
IC50 (MDA-MB231 cells [1]; read-out: IC50, MDA-MB231 cell viability, Table 5): 3000 nM
IC50 (MDA-MB231 cells [1]; [10]): 1200 nM
p-ERK, higher concentrations alone (pERK, JNK, p38 MAPK; 2.5 μM Δ^9-THC, 2.0 μM CBD, three days): had no effect on p-ERK activity
pERK (pERK, JNK, p38 MAPK; THC 1.7 μM, CBD 0.4 μM, two days): no changes in pERK were observed
IC50 (4T1 cells): 2300 nM
IC50 (U87 cells): 1600 nM
IC50 (U251 cells [6]): 1100 nM

Cc1c(C(=O)c2cccc3ccccc23)c2cccc3c2n1[C@H](CN1CCOCC1)CO3 [WIN 55, 212-2]
invasion of MDA-MB231 cells (MDA-MB231 cells [2]): significantly reduced the invasion
IC50 (MDA-MB436 cells; [8]): 2400 nM
IC50 (SF126 cells; [9]): 840 nM
IC50 (SF126 cells; three day treatment, Table 3): 1300 nM
IC50 (MDA-MB231 cells [1]; [10]): 1700 nM
IC50 (U87 cells): 770 nM
IC50 (U251 cells [6]): 1100 nM
